Patent US4892963A, “N-phenyl amide compounds” (Lilly Industries Limited, priority 1986, dated 1990)

Key:
[1] = tested on: rat spleen cells; test: concanavalin A response of rat spleen cells (tritiated thymidine uptake); format: cell-based; settings: dosage level of 10 micromolar, concanavalin A 3 μg/ml, 2×10^5 cells per well
Description: The concanavalin A response of rat spleen cells was used as a primary in vitro assay to determine the activity of the compounds of the invention. Many methods for the determination of concanavalin A response are described in the literature. The method employed was similar to that described by Lacombe P. et al, FEBS 3048 191, 227-230. This method was altered insofar as Hepes was excluded, 2×10^5 cells were used per culture well, and concanavalin A employed at 3 μg/ml. 2-Mercaptoethanol was a requirement (2×10M^-5 ) and 0.1 μCi of tritiated thymidine was added 4 hours before cell harvesting.

[2] = tested on: cyclooxygenase; test: cyclooxygenase inhibition test of Harvey and Osborn
Excerpt: Other members of the series inhibit 5-lipoxygenase product formation as measured in this test, and are thus indicated for the therapeutic treatment of diseases in which leukotrienes are implicated. These include immediate hypersensitivity diseases, allergic reactions of the pulmonary system, for example, in lung disorders such as extrinsic asthma and industrial asthmas and in other inflammatory disorders associated with acute or chronic infectious diseases as allergic skin diseases, ectopic and atopic eczemas, psoriasis, contact hypersensitivity and angioneurotic oedema, bronchitis, cystic fibrosis and rheumatic fever. Furthermore, owing to their inhibition of leukotriene formation, the compounds have potential activity against a wide range of inflammatory diseases, and are also indicated for use in cancer treatment.

| SMILES | inhibition at 10 µM [1] [%] | cyclooxygenase inhibiting properties [2] |
| --- | --- | --- |
| CC(O)=C(C#N)C(=O)Nc1ccc(C(C)(C)C)cc1 [Example 1, 2-Cyano-N-[4-(1,1-dimethylethyl)phenyl]-3-hydroxybut-2-enamide] | > 50 | little or no cyclooxygenase inhibiting properties |
| Cc1oncc1C(=O)Nc1ccc(C(C)(C)C)cc1 [Example 3, N-[4-(1,1-Dimethylethyl)phenyl]-5-methylisoxazol-4-yl-carboxamide] | > 50 | – |
| CCC(C)(C)c1ccc(NC(=O)C(C#N)=C(C)O)cc1 [Example 4, 2-Cyano-N-[4-(1,1-dimethylpropyl)phenyl]-3-hydroxybut-2-enamide] | > 50 | – |
| CC(O)=C(C#N)C(=O)N(C)c1ccc(C(C)(C)C)cc1 [Example 2, 2-Cyano-N-[4-(1,1-dimethylethyl)phenyl]-3-hydroxy-N-methylbut-2-enamide] | – | little or no cyclooxygenase inhibiting properties |
